Earlier results in patent US20050058722A1, “Herbo-mineral formulation for refractory leukemias and lymphomas” (Sahajanand Biotech Private Limited, priority 2003, published 2005).

Key:
lymphoid neoplasms = conditions: pre-clinical studies
[1] = test system: myeloid leukemia cell lines; conditions: pre-clinical studies

Q: With Arsenic trioxide as the substance, how does the “Apoptosis and cell cycle” value (lymphoid neoplasms) read?
A: The value was “induction of apoptosis and cell cycle arrest”.

Q: What about the Apoptosis and differentiation [1] of the same substance?
A: The Apoptosis and differentiation was “dose-dependent induction of apoptosis and partial differentiation”.
